One data set concerns CRC PDX27454 tumors. The conditions noted are these: mouse, in vivo. Here is the method:
Colorectal cancer (CRC) patient-derived xenograft (PDX) models were used to evaluate their in vivo antitumor activity. […] Treatments were administered weekly for four weeks on days 0, 7, 14 and 21 and tumor volumes and individual body weights were monitored.
Human xenograft tumors used. In this invention disclose, human SW620 (colorectal), HT29 (colorectal) and HT-3 (retinoblastoma) cancer cell line-established xenograft tumors were used. Human tumor cell line-derived xenograft tumors are initially established by subcutaneously injecting 2-5×10^6 cultured cancer cells in a volume of 100-150 p L medium into the flank area of severe combined immunodeficiency (SCID) mice. The derived tumors are then passed a couple of generations in mice by transplanting 30-50 mg non-necrotic tumor mass via a trocar for experiments or maintenance. […] PDX tumors were originally established on severe Combined Immunodeficiency (SCID) mice from pancreatic and colorectal cancer patient tumor tissues obtained from metastatic sites of the disease in the clinic.
Specifically, PDX tumors were originally established on severe Combined Immunodeficiency (SCID) mice from pancreatic and colorectal cancer patient tumor tissues obtained from metastatic sites of the disease in the clinic. […] The vehicle is the same think aqueous suspension without drug. Experimental SCID mice were subcutaneously implanted with 30-40 mg individual PDX tumors (isolated from maintenance mice) at the flank area for PDX27454 of SCID mice. Treatment with vehicle or a drug of 7Q-series (2) was initiated 7-14 days after the transplanted tumors reached 100-200 mm^3 (designated day 0). The animal model of PDX tumors was orally treated weekly for 4 times (one cycle/course, as shown with black arrows) or only one time drug administration.

The next data set has as its system A549. In kind it is cell-based, human.
A further data set concerns HeLa. In kind it is cell-based, human.
Another data set deals with HepG2. Type of data set: cell-based, human.
The subject of the next data set is HCT116. In kind it is cell-based, human.
The subject of a further data set is HT-3. Briefly: MTT assay HT-3. As to conditions: Table 7; HT-3. Type of data set: cell-based, human. Here is the method: MTT assays. […] Viable cells (2500 cells per well) were plated in each well in 96-well plates. After an overnight incubation, cells were treated with and without relevant drugs alone and in combination, respectively, at various concentrations and incubated for 72 hours. MTT, a colorimetric substrate, was added to a final concentration of 0.4 mg/ml to each well. Cells in 96-well plates were further incubated in a 5% CO2 incubator at 37° C. for 4 hours, and then the medium was aspirated. The MTT metabolic product formazan was solubilized by adding 200 ul of DMSO to each well. Absorbance in the relevant wells was measured at 570 nm using an Ultra Microplate Reader (Bio-Tek Instruments). Each experiment was performed at least in triplicate. IC50/EC50 values were calculated from a series of drug dose ranges for each analyzed compound, using GraphPad Prism 6 (GraphPad Software, Inc., La Jolla, CA).
The inhibition of cell growth and viability in various cancer cell types were tested using MTT assay for references.

The subject of the next data set is Y79. The data set can be described thus: MTT assay Y79. Type of data set: cell-based. As to conditions: Table 7. Here is the method:
(§1) MTT assays. […] Each experiment was performed at least in triplicate.

In a further data set the test system is Wer 127. The data set can be described thus: MTT assay Wer 127. In kind it is cell-based. The conditions noted are these: Table 7. Here is the method: as §1

Turning to `CC[C@@]1(O)C(=O)OCc2c1cc1n(c2=O)Cc2c-1nc1cc3c(cc1c2-c1ccc(C)c(F)c1)OCO3` [Compound 7Q28], in the data set on CRC PDX27454 tumors, the “antitumor activity, 7Q-series (2)” value is listed as “much higher antitumor activity than the other compounds in this 7Q-series (2)” and the “effect of oral instead of i.p. administration on antitumor efficacy” value was “decreases 7Q28 antitumor efficacy”.
The matching figures for `CC[C@@]1(O)C(=O)OCc2c1cc1n(c2=O)Cc2c-1nc1cc3c(cc1c2-c1ccc(OC)c(F)c1)OCO3` [Compound 7Q31]: “much higher antitumor activity than the other compounds in this 7Q-series (2)” and “decreases 7Q28 antitumor efficacy”.
Regarding `CC[C@@]1(O)C(=O)OCc2c1cc1n(c2=O)Cc2c-1nc1cc3c(cc1c2-c1ccc(F)c(OC)c1)OCO3` [Compound 7Q32], in the data set with CRC PDX27454 tumors, the “antitumor activity, 7Q-series (2)” value is reported as “much higher antitumor activity than the other compounds in this 7Q-series (2)” and the “toxicity on i.p. versus oral administration” value was “increases 7Q32 toxicity to animals in comparison with oral administration”.
On to `CC[C@@]1(O)C(=O)OCc2c1cc1n(c2=O)Cc2c-1nc1cc3c(cc1c2-c1cccc(C(F)(F)F)c1)OCO3` [Compound 7Q35], for which, in the data set on CRC PDX27454 tumors, the “antitumor activity, 7Q-series (2)” value is recorded as “much higher antitumor activity than the other compounds in this 7Q-series (2)” and the “effect of oral instead of i.p. administration on antitumor efficacy” value is on record as “decreases 7Q35 antitumor efficacy”.
For `CC[C@@]1(O)C(=O)OCc2c1cc1n(c2=O)Cc2c-1nc1cc3c(cc1c2-c1cccc(OC(F)(F)F)c1)OCO3` [Compound 7Q36], in the data set on CRC PDX27454 tumors, the “antitumor activity, 7Q-series (2)” value is reported as “much higher antitumor activity than the other compounds in this 7Q-series (2)” and the “loss of antitumor efficacy on oral administration” value was above 80%.
For the molecule `CC[C@@]1(O)C(=O)OCc2c1cc1n(c2=O)Cc2c-1nc1cc3c(cc1c2-c1cccc(F)c1)OCO3` [Compound 7a], the half-maximal inhibitory concentration (IC50) with A549 was 40 ± 0.3 nM; in the data set with HeLa, 34.7 ± 6.5 nM; in the data set on HepG2 it was 155 ± 35.1 nM; with HCT116 it was 150 ± 2.5 nM.
With `CC[C@@]1(O)C(=O)OCc2c1cc1n(c2=O)Cc2c-1nc1cc3c(cc1c2-c1cc(F)cc(F)c1)OCO3` [Compound 7c], the IC50 with A549 was determined as 49.5 ± 10 nM; in the data set with HeLa, 35.6 ± 5.8 nM; in the data set with HepG2 it was 41.4 ± 5.9 nM; in the data set on HCT116, 48 ± 4.4 nM. Further, the antitumor efficacy result with CRC PDX27454 tumors is given as “high antitumor efficacy”. Further, the mouse body weights entry with CRC PDX27454 tumors (ip) is “stable mouse body weights”.
For `CC[C@@]1(O)C(=O)OCc2c1cc1n(c2=O)Cc2c-1nc1cc3c(cc1c2-c1ccc(C)c(F)c1)OCO3` [Compound 7d], the IC50 with A549 worked out at 48.2 ± 7.9 nM; in the data set on HeLa it was 22.1 ± 7.3 nM; in the data set on HepG2 it was 36.9 ± 1.2 nM; in the data set with HCT116, 50.3 ± 14.6 nM.
The matching figures for `CC[C@@]1(O)C(=O)OCc2c1cc1n(c2=O)Cc2c-1nc1cc3c(cc1c2-c1ccc(F)c(C)c1)OCO3` [Compound 7e]: 29.4 ± 4.1 nM, 36.6 ± 4.5 nM, 36.7 ± 2.6 nM and 25.5 ± 3.2 nM.
`CC[C@@]1(O)C(=O)OCc2c1cc1n(c2=O)Cc2c-1nc1cc3c(cc1c2-c1cc(C)cc(F)c1)OCO3` [Compound 7f]: the IC50 in the data set on A549 stood at 30.6 ± 3.8 nM; in the data set with HeLa it was 56.5 ± 2.8 nM; with HepG2, 56 ± 0.3 nM; in the data set on HCT116, 41.4 ± 5.9 nM.
The matching figures for `CC[C@@]1(O)C(=O)OCc2c1cc1n(c2=O)Cc2c-1nc1cc3c(cc1c2-c1ccc(OC)c(F)c1)OCO3` [Compound 7g]: 70.2 ± 9.6 nM, 24.3 ± 4.4 nM, 172 ± 5.3 nM and 43.2 ± 15.8 nM.
The matching figures for `CC[C@@]1(O)C(=O)OCc2c1cc1n(c2=O)Cc2c-1nc1cc3c(cc1c2-c1cc(F)cc(OC)c1)OCO3` [Compound 7i]: 15.5 ± 2.2 nM, 124 ± 12.1 nM, 48.5 ± 2.3 nM and 66.9 ± 6.5 nM.
The matching figures for `CCOc1ccc(-c2c3c(nc4cc5c(cc24)OCO5)-c2cc4c(c(=O)n2C3)COC(=O)[C@]4(O)CC)cc1F` [Compound 7j]: 352 ± 10.3 nM, 42.2 ± 3.6 nM, 206 ± 38.2 nM and 399 ± 19.8 nM.
Take `CC[C@@]1(O)C(=O)OCc2c1cc1n(c2=O)Cc2c-1nc1cc3c(cc1c2-c1cccc(C(F)(F)F)c1)OCO3` [Compound 7k]: the IC50 came to 82.9 ± 5.6 nM in the data set on A549, 20.2 ± 3 nM in the data set on HeLa, 35 ± 6.6 nM with HepG2 and 73.6 ± 7.1 nM with HCT116.
Regarding `CC[C@@]1(O)C(=O)OCc2c1cc1n(c2=O)Cc2c-1nc1cc3c(cc1c2-c1ccc(OC(F)(F)F)cc1)OCO3` [Compound 7m], the IC50 with A549 amounted to 87.3 ± 14.4 nM; in the data set on HeLa, 398 ± 2.6 nM; with HepG2 it was 229 ± 5.8 nM; in the data set on HCT116, 196 ± 19.1 nM.
The matching figures for `CC[C@@]1(O)C(=O)OCc2c1cc1n(c2=O)Cc2c-1nc1cc3c(cc1c2-c1ccc(F)c(F)c1)OCO3` [Compound 7n]: 9 nM, 39.7 ± 2.3 nM, 49.9 ± 3.5 nM and 48.8 ± 3.2 nM.
`CC[C@@]1(O)C(=O)OCc2c1cc1n(c2=O)Cc2c-1nc1cc3c(cc1c2-c1cccc(OC(F)(F)F)c1)OCO3` [Compound 71]: the IC50 in the data set with A549 worked out at 26.4 ± 7.5 nM; in the data set on HeLa it was 12.8 ± 7.4 nM; in the data set on HepG2, 16.8 ± 2.3 nM; in the data set on HCT116, 14.6 ± 6.7 nM. In the data set with CRC PDX27454 tumors, the antitumor efficacy result was “no more effective than FL118 in vivo”.
On to `CC[C@@]1(O)C(=O)OCc2c1cc1n(c2=O)Cc2c-1nc1cc3c(cc1c2C=Cc1ccccc1)OCO3` [FL7-5, 20 (S)-7-cinnamenyl-10,11-methylenedioxy-camptothecin], for which the IC50/EC50 in the data set on HT-3 came out at 5.89 nM; in the data set with Y79 it was 2.51 nM; in the data set on Wer 127 it was 5.13 nM.
As for `CC[C@@]1(O)C(=O)OCc2c1cc1n(c2=O)Cc2c-1nc1cc3c(cc1c2CCc1ccccc1)OCO3` [FL7-14, 20 (S)-7-phenethyl-10,11-methylenedioxy-camptothecin], the IC50/EC50 in the data set with HT-3 is given as 36.9 nM; in the data set on Y79, 8.39 nM; with Wer 127, 4.1 nM.
The matching figures for `CC[C@@]1(O)C(=O)OCc2c1cc1n(c2=O)Cc2c-1nc1cc3c(cc1c2/C=C/C=C/c1ccccc1)OCO3` [FL7s-1]: 11.9 nM, 4.16 nM and above 500 nM.
On the same counts, the results for `CCC1(O)C(=O)OCc2c1cc1n(c2=O)Cc2c-1nc1cc3c(cc1c2C=CC=Cc1ccc(OC)cc1)OCO3` (stereo not shown) [FL7s-2] are 113.2 nM, 41.48 nM and above 500 nM.
With `CC[C@@]1(O)C(=O)OCc2c1cc1n(c2=O)Cc2c-1nc1cc3c(cc1c2CCc1ccc(F)cc1)OCO3` [FL7s-4], the results for the IC50/EC50 with HT-3, in the data set with Y79 and in the data set with Wer 127 were 4.7 nM, 0.62 nM and 49.46 nM, respectively.
On the same counts, the results for `CC[C@@]1(O)C(=O)OCc2c1cc1n(c2=O)Cc2c-1nc1cc3c(cc1c2CCCCc1ccccc1)OCO3` [FL7s-5] are 3.58 nM, 1.11 nM and 381.2 nM.
The matching figures for `CC[C@@]1(O)C(=O)OCc2c1cc1n(c2=O)Cc2c-1nc1cc3c(cc1c2CCCCc1ccc(OC)cc1)OCO3` [FL7s-6]: 7.7 nM, 1.52 nM and 6.48 nM.
The matching figures for `CC[C@@]1(O)C(=O)OCc2c1cc1n(c2=O)Cc2c-1nc1cc3c(cc1c2CCc1ccccc1F)OCO3` [FL7s-8]: 4.88 nM, 1.56 nM and 28.99 nM.
As to `CC[C@@]1(O)C(=O)OCc2c1cc1n(c2=O)Cc2c-1nc1cc3c(cc1c2CCc1ccc(F)c(F)c1)OCO3` [FL7s-9], the IC50/EC50 in the data set on HT-3 came out at 3.42 nM; in the data set with Y79 it was 1 nM; in the data set with Wer 127, 1.86 nM.
On the same counts, the results for `CC[C@@]1(O)C(=O)OCc2c1cc1n(c2=O)Cc2c-1nc1cc3c(cc1c2CCc1cc(F)c(F)c(F)c1)OCO3` [FL7s-10] are 3.44 nM, 1.15 nM and 12.26 nM.

The record behind these values is patent US20250092058A1 (priority 2018, published 2025).
